In article PMC8303886, “Polyphenylglyoxamide-Based Amphiphilic Small Molecular Peptidomimetics as Antibacterial Agents with Anti-Biofilm Activity” (International Journal of Molecular Sciences, 2021):
Where “and” joins values, the source holds several entries; their conditions need not be identical. Identical values can stand only once. Like-named read-outs stand apart in the source and are kept apart here.

Test system: S. aureus (SA38)
Experiment: Minimum inhibitory concentration (MIC) assay against S. aureus
Assay type: cell-based, Staphylococcus aureus
Conditions: S. aureus SA38, read-out: MIC S. aureus

Row | SMILES | MIC | MIC (Staphylococcus aureus)
1 | CCCCCCCCCCCCS(=O)(=O)Nc1ccccc1C(=O)C(=O)NCCCN(C)C [Compound 11a, N-(3-(Dimethylamino)propyl)-2-(2-(dodecylsulfonamido)phenyl)-2-oxoacetamide] | 32 µM | 15 mg/L
2 | CCCCCCCCCCCCS(=O)(=O)Nc1ccc(Br)cc1C(=O)C(=O)NCCCN(C)C [Compound 11b, 2-(5-Bromo-2-(dodecylsulfonamido)phenyl)-N-(3-(dimethylamino)propyl)-2-oxoacetamide] | 32 µM | 18 mg/L
3 | CCCCCCCCCCCCS(=O)(=O)Nc1ccc(-c2ccccc2)cc1C(=O)C(=O)NCCCN(C)C [Compound 11c, N-(3-(Dimethylamino)propyl)-2-(4-(dodecylsulfonamido)-[1,1′-biphenyl]-3-yl)-2-oxoacetamide] | – | 16 µM and 8.9 µg/mL
4 | CCCCCCCCCCCCS(=O)(=O)Nc1ccc(-c2ccc(-c3ccccc3)cc2)cc1C(=O)C(=O)NCCCN(C)C [Compound 11d, N-(3-(Dimethylamino)propyl)-2-(4-(dodecylsulfonamido)-[1,1′:4′,1″-terphenyl]-3-yl)-2-oxoacetamide] | – | 250 µM and 158 µg/mL
5 | CCCCCCCCCCCCCCCCS(=O)(=O)Nc1ccccc1C(=O)C(=O)NCCCN(C)C [Compound 12a, N-(3-(Dimethylamino)propyl)-2-(2-(hexadecylsulfonamido)phenyl)-2-oxoacetamide] | – | 63 µM and 34 µg/mL
6 | CCCCCCCCCCCCCCCCS(=O)(=O)Nc1ccc(Br)cc1C(=O)C(=O)NCCCN(C)C [Compound 12b, 2-(5-Bromo-2-(hexadecylsulfonamido)phenyl)-N-(3-(dimethylamino)propyl)-2-oxoacetamide] | – | 250 µM and 154 µg/mL
7 | CCCCCCCCCCCCS(=O)(=O)Nc1ccccc1C(=O)C(=O)NCCCN(C)C.Cl [Compound 14a, 3-(2-(2-(Dodecylsulfonamido)phenyl)-2-oxoacetamido)-N,N-dimethylpropan-1-aminium chloride] | – | 16 µM and 8.3 µg/mL
8 | CCCCCCCCCCCCS(=O)(=O)Nc1ccc(Br)cc1C(=O)C(=O)NCCCN(C)C.Cl [Compound 14b, 3-(2-(5-Bromo-2-(dodecylsulfonamido)phenyl)-2-oxoacetamido)-N,N-dimethylpropan-1-aminium chloride] | – | 16 µM and 9.6 µg/mL
9 | CCCCCCCCCCCCS(=O)(=O)Nc1ccc(-c2ccccc2)cc1C(=O)C(=O)NCCCN(C)C.Cl [Compound 14c, 3-(2-(4-(Dodecylsulfonamido)-[1,1′-biphenyl]-3-yl)-2-oxoacetamido)-N,N-dimethylpropan-1-aminium chloride] | 16 µM | 9.5 mg/L
10 | CCCCCCCCCCCCS(=O)(=O)Nc1ccc(-c2ccc(-c3ccccc3)cc2)cc1C(=O)C(=O)NCCCN(C)C.Cl [Compound 14d, 3-(2-(4-(Dodecylsulfonamido)-[1,1′:4′,1″-terphenyl]-3-yl)-2-oxoacetamido)-N,N-dimethylpropan-1-aminium chloride] | 125 µM | 84 mg/L
11 | CCCCCCCCS(=O)(=O)Nc1ccc(-c2cccc(-c3ccccc3)c2)cc1C(=O)C(=O)NCCCN(C)C [Compound 21, N-(3-(Dimethylamino)propyl)-2-(4-(octylsulfonamido)-[1,1′:3′,1″-terphenyl]-3-yl)-2-oxoacetamide] | – | 16 µM and 9.2 µg/mL

Next, values leading:

Row | MIC | MIC (Staphylococcus aureus) | SMILES
12 | 63 µM | 36 mg/L | CCCCCCCCCCCCCCCCS(=O)(=O)Nc1ccccc1C(=O)C(=O)NCCCN(C)C.Cl [Compound 15a, 3-(2-(2-(Hexadecylsulfonamido)phenyl)-2-oxoacetamido)-N,N-dimethylpropan-1-aminium chloride]
13 | 250 µM | 163 mg/L | CCCCCCCCCCCCCCCCS(=O)(=O)Nc1ccc(Br)cc1C(=O)C(=O)NCCCN(C)C.Cl [Compound 15b, 3-(2-(5-Bromo-2-(hexadecylsulfonamido)phenyl)-2-oxoacetamido)-N,N-dimethylpropan-1-aminium chloride]
14 | > 250 µM | > 163 mg/L | CCCCCCCCCCCCCCCCS(=O)(=O)Nc1ccc(-c2ccccc2)cc1C(=O)C(=O)NCCCN(C)C.Cl [Compound 15c, 3-(2-(4-(Hexadecylsulfonamido)-[1,1′-biphenyl]-3-yl)-2-oxoacetamido)-N,N-dimethylpropan-1-aminium chloride]
15 | – | 16 µM and 10 µg/mL | CCCCCCCCCCCCS(=O)(=O)Nc1ccccc1C(=O)C(=O)NCCC[N+](C)(C)C.[I-] [Compound 17a, 3-(2-(2-(Dodecylsulfonamido)phenyl)-2-oxoacetamido)-N,N,N-trimethylpropan-1-aminium iodide]
16 | – | 63 µM and 48 µg/mL | CCCCCCCCCCCCS(=O)(=O)Nc1ccc(-c2ccc(-c3ccccc3)cc2)cc1C(=O)C(=O)NCCC[N+](C)(C)C.[I-] [Compound 17d, 3-(2-(4-(Dodecylsulfonamido)-[1,1′:4′,1″-terphenyl]-3-yl)-2-oxoacetamido)-N,N,N-trimethylpropan-1-aminium iodide]
17 | – | 125 µM and 95 µg/mL | CCCCCCCCCCCCCCCCS(=O)(=O)Nc1ccc(Br)cc1C(=O)C(=O)NCCC[N+](C)(C)C.[I-] [Compound 18b, 3-(2-(5-Bromo-2-(hexadecylsulfonamido)phenyl)-2-oxoacetamido)-N,N,N-trimethylpropan-1-aminium iodide]
18 | – | 250 µM and 189 µg/mL | CCCCCCCCCCCCCCCCS(=O)(=O)Nc1ccc(-c2ccccc2)cc1C(=O)C(=O)NCCC[N+](C)(C)C.[I-] [Compound 18c, 3-(2-(4-(Hexadecylsulfonamido)-[1,1′-biphenyl]-3-yl)-2-oxoacetamido)-N,N,N-trimethylpropan-1-aminium iodide]
19 | – | 250 µM and 147 µg/mL | CCCCCCCCCCCCCCCCS(=O)(=O)Nc1ccccc1C(=O)C(=O)NCCCNC(=N)N.Cl [Compound 35a, N-(3-Guanidinopropyl)-2-(2-(hexadecylsulfonamido)phenyl)-2-oxoacetamide hydrochloride]
